Experimental data: patent US8318769B2, “Substituted sulfonamide compounds” (Gruenethal GmbH, priority 2008, dated 2012)
Structures can show the parent of a compound that is named as a salt.

Key:
[1] = target: T1, human bradykinin 1 receptor (B1R) (Homo sapiens, UniProt P46663); assay: FLIPR Ca2+ assay, B1R antagonism, human; type: cell-based; settings: 10 μM test substance, CHO K1 cells with human B1R gene (hB1R cells), Lys-Des-Arg9-bradykinin at EC80, % inhibition compared with the maximum achievable inhibition; for inhibition at 10 µM: read-out: B1R antagonism, human [10 μM] % inhibition
T1 construct: expressed in transfected cells
T1 sequence (P46663 1-353): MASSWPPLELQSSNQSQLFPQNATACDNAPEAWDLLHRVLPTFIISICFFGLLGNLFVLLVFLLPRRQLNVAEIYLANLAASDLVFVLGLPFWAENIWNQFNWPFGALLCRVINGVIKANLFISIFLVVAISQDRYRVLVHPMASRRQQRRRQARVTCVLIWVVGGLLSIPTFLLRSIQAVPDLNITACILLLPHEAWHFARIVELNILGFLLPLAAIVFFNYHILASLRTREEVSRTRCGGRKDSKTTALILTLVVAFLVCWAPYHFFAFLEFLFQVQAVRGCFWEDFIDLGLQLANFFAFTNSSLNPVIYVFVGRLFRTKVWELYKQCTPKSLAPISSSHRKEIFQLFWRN
Procedure: The agonistic or antagonistic action of substances can be quantified on the bradykinin 1 receptor (B1R) of the human and rat species with ectopically expressing cell lines (CHO K1 cells) and with the aid of a Ca^2+-sensitive dyestuff (Fluo-4) in a fluorescent imaging plate reader (FLIPR). The figure in % activation is based on the Ca^2+ signal after addition of Lys-Des-Arg^9-bradykinin (0.5 nM) or Des-Arg^9-bradykinin (100 nM). Antagonists lead to a suppression of the Ca^2+ inflow after addition of the agonist. % inhibition compared with the maximum achievable inhibition is stated.
The agonistic or antagonistic action of substances can be determined on the bradykinin 1 receptor (B1R) of the human and rat species with the following assay. In accordance with this assay, the Ca^2+ inflow through the channel is quantified with the aid of a Ca^2+-sensitive dyestuff (type Fluo-4, Molecular Probes Europe BV, Leiden, Holland) in a fluorescent imaging plate reader (FLIPR, Molecular Devices, Sunnyvale, USA).
Chinese hamster ovary cells (CHO K1 cells) transfected stably with the human B1R gene (hB1R cells) or the B1R gene of the rat (rB1R cells) are used. For functional studies, these cells are plated out on black 96-well plates with a clear base (BD Biosciences, Heidelberg, Germany or Greiner, Frickenhausen, Germany) in a density of 20,000-35,000 cells/well. The cells are left overnight at 37° C. and 5% CO2 in culture medium (hB1R cells: Nutrient Mixture Ham's F12, Gibco Invitrogen GmbH, Karlsruhe, Germany or DMEM, Sigma-Aldrich, Taufkirchen, Germany; rB1R cells: D-MEM/F12, Gibco Invitrogen GmbH, Karlsruhe, Germany) with 10 vol. % FBS (foetal bovine serum, Gibco Invitrogen GmbH, Karlsruhe, Germany or PAN Biotech GmbH, Aidenbach, Germany).
On the following day, the cells are loaded for 60 min at 37° C. with 2.13 μM Fluo-4 (Molecular Probes Europe BV, Leiden, Holland) in HBSS buffer (Hank's buffered saline solution, Gibco Invitrogen GmbH, Karlsruhe, Germany) with 2.5 mM probenecid (Sigma-Aldrich, Taufkirchen, Germany) and 10 mM HEPES (Sigma-Aldrich, Taufkirchen, Germany). The plates are then washed 2× with HBSS buffer, and HBSS buffer which additionally contains 0.1% BSA (bovine serum albumin; Sigma-Aldrich, Taufkirchen, Germany), 5.6 mM glucose and 0.05% gelatine (Merck KGaA, Darmstadt, Germany) is added. After a further incubation of 20 minutes at room temperature, the plates are inserted into the FLIPR for the Ca^2+ measurement.
Alternatively, the plates are washed with buffer A (15 mM HEPES, 80 mM NaCl, 5 mM KCl, 1.2 mM CaCl2, 0.7 mM MgSO4, 2 g/l glucose, 2.5 mM probenecid), buffer A is added and the plates are loaded with 2.5 μM Fluo-4 and 0.025% Pluronic F127 (Sigma-Aldrich, Taufkirchen, Germany). Thereafter, the cells are washed 2× with buffer A and incubated for 30 minutes with buffer A, which additionally contains 0.05% BSA and 0.05% gelatine, at room temperature and thereafter inserted into the FLIPR for the Ca^2+ measurement.
The Ca^2+-dependent fluorescence is measured here before and after addition of substances (λex=488 nm, λem=540 nm). Quantification is by measurement of the highest fluorescence intensity (FC, fluorescence counts) over time.
The FLIPR protocol consists of 2 additions of substance. Test substances (10 μM) are first pipetted on to the cells and the Ca^2+ inflow is compared with the control (hB1R: Lys-Des-Arg^9-bradykinin >=50 nM; rB1R: Des-Arg^9-bradykinin 10 μM). This gives the figure in % activation based on the Ca^2+ signal after addition of Lys-Des-Arg^9-bradykinin (>=50 nM) or Des-Arg^9-bradykinin (10 μM).
After incubation for 10-20 minutes, Lys-Des-Arg^9-bradykinin (hB1R) or Des-Arg^9-bradykinin (rB1R) in the concentration of the EC80 is applied and the inflow of Ca^2+ is likewise determined. Antagonists lead to a suppression of the Ca^2+ inflow. % inhibition compared with the maximum achievable inhibition is calculated. […]

[2] = target: T2, bradykinin 1 receptor (B1R) of the rat (Rattus norvegicus, UniProt P97583); assay: FLIPR Ca2+ assay, B1R antagonism, rat; type: cell-based; settings: CHO K1 cells with rat B1R gene (rB1R cells), Des-Arg9-bradykinin at EC80, % inhibition compared with the maximum achievable inhibition; for inhibition at 10 µM: CHO-K1, 10 μM test substance, read-out: B1R antagonism, rat [10 μM] % inhibition
T2 construct: expressed in transfected cells
T2 sequence (P97583 1-337): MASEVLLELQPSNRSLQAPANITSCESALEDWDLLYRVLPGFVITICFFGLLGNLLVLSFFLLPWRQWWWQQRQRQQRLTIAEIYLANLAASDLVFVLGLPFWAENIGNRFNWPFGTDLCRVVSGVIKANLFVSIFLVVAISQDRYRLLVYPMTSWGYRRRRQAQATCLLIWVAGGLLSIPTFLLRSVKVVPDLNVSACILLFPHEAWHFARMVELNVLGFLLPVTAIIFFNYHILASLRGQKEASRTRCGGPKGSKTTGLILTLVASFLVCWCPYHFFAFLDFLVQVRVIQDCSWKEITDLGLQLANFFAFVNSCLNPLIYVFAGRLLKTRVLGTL
Outline: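 CHO K1 cells stably expressing human or rat B1R, loaded with Fluo-4 and read in FLIPR (ex 488, em 540 nm, peak fluorescence). Test compound 10 μM preincubated 10-20 min, then EC80 agonist added (Lys-Des-Arg9-bradykinin for human, Des-Arg9-bradykinin for rat); % inhibition relative to maximum achievable inhibition.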

Row | Compound | inhibition at 10 µM [1] [%] | inhibition at 10 µM [2] [%] | B1R antagonism, human [10 μM] % inhibition ([1]; 10 µM) [%] | B1R antagonism, rat [10 μM] % inhibition ([2]; 10 μM test substance, 10 µM) [%]
1 | COc1cc(C)c(S(=O)(=O)N2CCCC[C@H]2COCC(=O)N2CCC(OCCN3CCCC3)(c3cccnc3)C2)c(C)c1 (stereo partly drawn) [Example 50, 2-(((S)-1-(4-methoxy-2,6-dimethylphenylsulfonyl)piperidin-2-yl)methoxy)-1-(3-(pyridin-3-yl)-3-(2-(pyrrolidin-1-yl)ethoxy)pyrrolidin-1-yl)ethanone] | 100 | 104 | – | –
2 | COc1cc(C)c(S(=O)(=O)N(C)CCOCC(=O)N2CCC(OCCCN3CCCCC3)(c3cccnc3)CC2)c(C)c1 [Example 18, 4-methoxy-N,2,6-trimethyl-N-(2-(2-oxo-2-(4-(3-(piperidin-1-yl)propoxy)-4-(pyridin-3-yl)piperidin-1-yl)ethoxy)ethyl)benzenesulfonamide] | 102 | 103 | – | –
3 | CN1CCN(CCOC2(c3cccnc3)CCN(C(=O)CC(NS(=O)(=O)c3ccc4ccccc4c3)c3ccccc3)CC2)CC1 (centres unmarked) [Example 32, N-(3-(4-(2-(4-methylpiperazin-1-yl)ethoxy)-4-(pyridin-3-yl)piperidin-1-yl)-3-oxo-1-phenylpropyl)naphthalene-2-sulfonamide] | 63 | 98 | – | –
4 | COc1cc(C)c(S(=O)(=O)N(C)CCOCC(=O)N2CCC(OCCN3CCCC3)(c3cccnc3)CC2)c(C)c1 [Example 80, 4-methoxy-N,2,6-trimethyl-N-[2-[2-oxo-2-[4-pyridin-3-yl-4-(2-pyrrolidin-1-yl-ethoxy)-piperidin-1-yl]-ethoxy]-ethyl]-benzenesulfonic acid amide] | – | – | 100 | 102
5 | O=C(CCCC1CCCCN1S(=O)(=O)c1ccc2ccccc2c1)N1CCC(OCCN2CCCC2)(c2cccnc2)CC1 (centres unmarked) [Example 95, 4-[1-(naphthalen-2-ylsulfonyl)-piperidin-2-yl]-1-[4-pyridin-3-yl-4-(2-pyrrolidin-1-yl-ethoxy)-piperidin-1-yl]-butan-1-one] | 95 | 101 | – | –
6 | COc1cc(C)c(S(=O)(=O)N2CCCCC2COCC(=O)N2CCC(OCCCN3CCCC3)(c3cccnc3)CC2)c(C)c1 (centres unmarked) [Example 40, 2-((1-(4-methoxy-2,6-dimethylphenylsulfonyl)piperidin-2-yl)methoxy)-1-(4-(pyridin-3-yl)-4-(3-(pyrrolidin-1-yl)propoxy)piperidin-1-yl)ethanone] | 99 | 102 | – | –

Other lines, results leading:

Row | inhibition at 10 µM [1] [%] | inhibition at 10 µM [2] [%] | B1R antagonism, human [10 μM] % inhibition ([1]; 10 µM) [%] | B1R antagonism, rat [10 μM] % inhibition ([2]; 10 μM test substance, 10 µM) [%] | Compound
7 | 97 | 104 | – | – | COc1cc(C)c(S(=O)(=O)N2CCCC[C@H]2COCC(=O)N2CCC(COCCN3CCCC3)(c3cccnc3)CC2)c(C)c1 [Example 49, (S)-2-((1-(4-methoxy-2,6-dimethylphenylsulfonyl)piperidin-2-yl)methoxy)-1-(4-(pyridin-3-yl)-4-((2-(pyrrolidin-1-yl)ethoxy)methyl)piperidin-1-yl)ethanone]
8 | 100 | 103 | – | – | COc1cc(C)c(S(=O)(=O)N(CCOCC(=O)N2CCC(OCCN3CCCC3)(c3cccnc3)CC2)c2ccccc2)c(C)c1 [Example 98, 4-methoxy-2,6-dimethyl-N-[2-[2-oxo-2-[4-pyridin-3-yl-4-(2-pyrrolidin-1-yl-ethoxy)-piperidin-1-yl]-ethoxy]-ethyl]-N-phenyl-benzenesulfonic acid amide]
9 | 100 | 101 | – | – | COc1cc(C)c(S(=O)(=O)N(C)CCOCC(=O)N2CCC(OCCCN3CCCC3)(c3cccnc3)CC2)c(C)c1 [Example 41, 4-methoxy-N,2,6-trimethyl-N-(2-(2-oxo-2-(4-(pyridin-3-yl)-4-(3-(pyrrolidin-1-yl)propoxy)piperidin-1-yl)ethoxy)ethyl)benzenesulfonamide]
10 | 100 | 102 | – | – | COc1cc(C)c(S(=O)(=O)N2CCCC[C@H]2COCC(=O)N2CCC(OCCN3CCCC3)(c3cccnc3)CC2)c(C)c1 [Example 46, (S)-2-((1-(4-methoxy-2,6-dimethylphenylsulfonyl)piperidin-2-yl)methoxy)-1-(4-(pyridin-3-yl)-4-(2-(pyrrolidin-1-yl)ethoxy)piperidin-1-yl)ethanone hydrochloride]
